Reference: US20210221866A1, “PROTEASE-RESISTANT LIPIDATED GLP-1 ANALOGS” (MEDIMMUNE LIMITED, priority 2015, published 2021)
Like-named read-outs stand apart in the source and are kept apart here. Numbered stars: 1 amine (or outer) side, 2 acyl side, 3 side chain; on linkers, the order of the positions; unused ones are H or OH. Square brackets hold non-standard residues; d marks the D form. Side chains are listed from the residue outwards. Peptide text beside a SMILES is read from it. * marks the point of attachment. γGlu = O=C(O)[C@H](CCC(=O)[*:2])N[*:1]; αMeF = C[C@](N)(Cc1ccccc1)C(=O)O; αMeK = C[C@](N)(CCCCN)C(=O)O; Lauroyl = CCCCCCCCCCCC(=O)*; αMeS = C[C@](N)(CO)C(=O)O; Nle = CCCC[C@H](N)C(=O)O; AEEA = NCCOCCOCC(=O)O; Aib = CC(C)(N)C(=O)O

Assays:
[1] = target: T1, recombinant Neprilysin (Homo sapiens, UniProt P08473); experiment: Proteolytic resistance to neprilysin (% remaining peptide, RP-HPLC AUC); assay type: in vitro ADME; conditions: t = 0 (baseline); 37° C., pH 8.3; enzyme:peptide ~1:33 for non-lipidated, ~1:2.5 for lipidated peptides
T1 construct: purchased R&D Systems 1182-ZNC-010
T1 sequence (P08473 whole entry): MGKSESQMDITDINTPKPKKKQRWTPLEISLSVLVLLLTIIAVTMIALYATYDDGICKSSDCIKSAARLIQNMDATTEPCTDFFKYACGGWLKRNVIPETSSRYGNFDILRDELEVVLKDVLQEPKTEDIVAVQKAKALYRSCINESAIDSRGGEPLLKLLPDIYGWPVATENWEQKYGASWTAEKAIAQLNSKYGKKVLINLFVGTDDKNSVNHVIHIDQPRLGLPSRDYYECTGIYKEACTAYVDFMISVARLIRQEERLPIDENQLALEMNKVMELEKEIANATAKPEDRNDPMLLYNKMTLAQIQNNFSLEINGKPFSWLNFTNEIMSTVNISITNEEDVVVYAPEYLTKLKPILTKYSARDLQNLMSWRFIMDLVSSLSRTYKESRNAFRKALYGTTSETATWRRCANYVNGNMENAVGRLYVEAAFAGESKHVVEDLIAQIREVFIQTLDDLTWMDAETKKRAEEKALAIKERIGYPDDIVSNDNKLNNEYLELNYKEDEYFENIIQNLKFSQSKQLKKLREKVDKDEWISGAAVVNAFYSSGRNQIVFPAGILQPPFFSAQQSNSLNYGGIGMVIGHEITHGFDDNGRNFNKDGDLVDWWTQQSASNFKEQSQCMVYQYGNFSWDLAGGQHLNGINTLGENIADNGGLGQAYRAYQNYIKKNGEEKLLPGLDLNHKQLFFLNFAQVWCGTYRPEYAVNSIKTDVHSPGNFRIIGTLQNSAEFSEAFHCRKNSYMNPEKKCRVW
Protocol: Ratio enzyme (units):peptide (moles) ˜1:33. […] Ratio enzyme (units):peptide (moles) ˜1:2.5.
15 μL aliquots (˜15 ng initial peptide) of the peptide-enzyme mixture were periodically withdrawn (t=0, 30 mins, 1 hr, 2 hr, 4 hr, 8 hr, 24 hr) and quenched immediately by addition to an equal volume (15 μL) of 5% TFA (v/v) in 1:1 water/acetonitrile to arrest proteolytic activity. 20 μL aliquots (˜10 ng initial peptide) were analyzed by LC/MS and/or analytical RP-HPLC as follows: LC/MS method: Agilent Polaris C8-A column (4.6×100 mm, 3 micron) eluted with a linear binary gradient of 10-90% MeCN (0.1% TFA v/v) in water (0.1% TFA v/v) over 30 mins at 1.5 mL min-1 at ambient temperature with detection by both UV absorption at 210 nm and ionization using a Waters 3100 mass detector (ESI+ mode). Peptide fragments deriving from enzymatic hydrolysis were identified by molecular weight, allowing location of the site of cleavage. Analytical RP-HPLC method: Agilent Polaris C8-A column (4.6×100 mm, 3 micron) eluted with a linear binary gradient of 10-90% MeCN (0.1% TFA v/v) in water (0.1% TFA v/v) over either 10 or 15 mins at 1.5 mL min^−1 at 40° C. with detection by UV absorption at 210 nm. Manual integration (AUC) allowed estimation of remaining intact peptide over the time course of the experiment.
25 μL aliquots (˜6 μg initial peptide) were analyzed by LC/MS and/or analytical RP-HPLC as follows: LC/MS method: Agilent Polaris C8-A column (4.6×100 mm, 3 micron) eluted with a linear binary gradient of 10-90% MeCN (0.1% TFA v/v) in water (0.1% TFA v/v) over 30 mins at 1.5 mL min^−1 at ambient temperature with detection by both UV absorption at 210 nm and ionization using a Waters 3100 mass detector (ESI^+ mode). Peptide fragments deriving from enzymatic hydrolysis were identified by molecular weight, allowing location of the site of cleavage. Analytical RP-HPLC method: Agilent Polaris C8-A column (4.6×100 mm, 3 micron) eluted with a linear binary gradient of 10-90% MeCN (0.1% TFA v/v) in water (0.1% TFA v/v) over either 10 or 15 mins at 1.5 mL min^−1 at 40° C. with detection by UV absorption at 210 nm. Manual integration (AUC) allowed estimation of remaining intact peptide over the time course of the experiment.

[2] = target: T2, porcine pancreatic pepsin (Sus scrofa, UniProt P00791); experiment: Proteolytic resistance to pepsin (% remaining intact peptide, RP-HPLC AUC); assay type: in vitro ADME; conditions: t = 0; 37° C., pH 2.0
T2 construct: purchased Sigma P7012
T2 sequence (P00791 60-385): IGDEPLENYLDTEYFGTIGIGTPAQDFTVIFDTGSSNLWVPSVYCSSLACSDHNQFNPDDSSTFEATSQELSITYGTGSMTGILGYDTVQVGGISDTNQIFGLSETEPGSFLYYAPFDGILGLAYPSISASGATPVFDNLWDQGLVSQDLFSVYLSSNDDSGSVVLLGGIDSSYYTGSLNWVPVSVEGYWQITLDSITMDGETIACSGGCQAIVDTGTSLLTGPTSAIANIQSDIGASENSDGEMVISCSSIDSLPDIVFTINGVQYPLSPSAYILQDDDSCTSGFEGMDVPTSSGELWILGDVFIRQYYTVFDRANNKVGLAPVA
Protocol: Pepsin: Lyophilized porcine pancreatic pepsin (Sigma: P7012) was reconstituted to afford a solution of 200 μg/mL (˜500 units/mL) in assay buffer (0.1 M HCl, pH 2.0) to give the enzyme stock solution. […] Ratio enzyme (units):peptide (moles) ˜1:6. […] Ratio enzyme (units):peptide (μmoles) ˜2:1.
Lyophilized porcine pancreatic pepsin (Sigma: P7012) was reconstituted to […] (˜500 units/mL) in assay buffer ([…], pH 2.0) to give the enzyme stock solution.

[3] = target: porcine pancreatic trypsin (Sus scrofa, UniProt P00761); experiment: Proteolytic resistance to trypsin (% remaining intact peptide, RP-HPLC AUC); assay type: in vitro ADME; conditions: t = 0; 37° C., pH 7.8
Chain of porcine pancreatic trypsin (P00761 9-231): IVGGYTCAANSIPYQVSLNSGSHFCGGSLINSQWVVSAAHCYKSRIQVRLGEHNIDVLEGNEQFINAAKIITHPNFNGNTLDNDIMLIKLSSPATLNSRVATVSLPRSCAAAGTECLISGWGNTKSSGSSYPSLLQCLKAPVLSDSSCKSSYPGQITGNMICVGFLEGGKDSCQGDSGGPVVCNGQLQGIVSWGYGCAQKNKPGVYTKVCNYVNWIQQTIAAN

[4] = Proteolytic resistance to α-chymotrypsin (% remaining intact peptide, RP-HPLC AUC); conditions: recombinant α-chymotrypsin in assay buffer, pH 7.8
Protocol: (§3) Ratio enzyme (units):peptide (μmoles) ˜1:33. […] Ratio enzyme (units):peptide (μmoles) ˜1:2.5.
(§4) 15 μL aliquots (˜15 μg initial peptide) of the peptide-enzyme mixture are periodically withdrawn (t=0, 30 mins, 1 hr, 2 hr, 4 hr, 8 hr, 24 hr) and quenched immediately by addition to an equal volume (15 μL) of 5% TFA (v/v) in 1:1 water/acetonitrile to arrest proteolytic activity. 20 μL aliquots (˜10 μg initial peptide) are analysed by LC/MS and/or analytical RP-HPLC as follows: LC/MS method: Agilent Polaris C8-A column (4.6×100 mm, 3 micron) elutes with a linear binary gradient of 10-90% MeCN (0.1% TFA v/v) in water (0.1% TFA v/v) over 30 mins at 1.5 mL min^−1 at ambient temperature with detection by both UV absorption at 210 nm and ionization using a Waters 3100 mass detector (ESI^+ mode). Peptide fragments deriving from enzymatic hydrolysis are identified by molecular weight, allowing location of the site of cleavage. Analytical RP-HPLC method: Agilent Polaris C8-A column (4.6×100 mm, 3 micron) elutes with a linear binary gradient of 10-90% MeCN (0.1% TFA v/v) in water (0.1% TFA v/v) over either 10 or 15 mins at 1.5 mL min^−1 at 40° C. with detection by UV absorption at 210 nm. Manual integration (AUC) allows estimation of remaining intact peptide over the time course of the experiment.
(§5) 25 μL aliquots (˜6 μg initial peptide) are analysed by LC/MS and/or analytical RP-HPLC as follows: LC/MS method: Agilent Polaris C8-A column (4.6×100 mm, 3 micron) elutes with a linear binary gradient of 10-90% MeCN (0.1% TFA v/v) in water (0.1% TFA v/v) over 30 mins at 1.5 mL min^−1 at ambient temperature with detection by both UV absorption at 210 nm and ionization using a Waters 3100 mass detector (ESI±mode). Peptide fragments deriving from enzymatic hydrolysis are identified by molecular weight, allowing location of the site of cleavage. Analytical RP-HPLC method: Agilent Polaris C8-A column (4.6×100 mm, 3 micron) elutes with a linear binary gradient of 10-90% MeCN (0.1% TFA v/v) in water (0.1% TFA v/v) over either 10 or 15 mins at 1.5 mL min^−1 at 40° C. with detection by UV absorption at 210 nm. Manual integration (AUC) allows estimation of remaining intact peptide over the time course of the experiment.

[5] = test system: recombinant α-chymotrypsin; experiment: as above; conditions: t = 0; 37° C., pH 7.8
Protocol: as §3, §4, §5

[6] = Proteolytic resistance to fasted-state simulated intestinal fluid (FASSIF/Pancreatin); assay type: in vitro ADME; conditions: 37° C., read-out: Percentage remaining intact peptide (AUC by RP-HPLC) upon incubation with fasted-state simulated intestinal fluid (FASSIF/P); for remaining at 5 min, […]: t = 5 m; for remaining at 10 min, […]: t = 10 m; for remaining at 0.25 h, […]: t = 15 m; for remaining at 0.5 h, […]: t = 30 m; for remaining at 1 h, […]: t = 1 h; for remaining at 2 h, […]: t = 2 h
Protocol: (§1) A fresh suspension of FASSIF/P (Fasted-State Simulated Intestinal Fluid+USP Pancreatin®) was prepared according to that described by Galia, Nicolaides, Hörter, Lobenberg, Reppas and Dressman: Pharm. Res. 15 (1998) 698-705. The resulting preparation is proteolytically equivalent to ˜375 units/mL (375 kU/L) and was used immediately without storage. Peptides for evaluation (1.0 mg, ˜250 nmoles) were initially dissolved in pre-warmed FASSIF without Pancreatin® (200 μL) to which was added pre-warmed fresh FASSIF/Pancreatin® (100 μL) to initiate potential digestion. Following momentary vortexing of the Eppendorf reaction tube the mixture was incubated at 37° C. in a thermostatic waterbath for the duration of the experiment. 25 μL aliquots of the co-incubated peptide-enzyme mixture were periodically withdrawn (t=0, 5 m, 10 m, 15 m, 30 m, 1 h, 2 h) and quenched immediately by addition to a solution of 10% TFA in 1:1 water/acetonitrile (75 μL) to arrest proteolytic activity.

[7] = test system: FASSIF/P (Fasted-State Simulated Intestinal Fluid+USP Pancreatin®); experiment: as above; assay type: in vitro ADME; conditions: t = 0; 37° C.
Protocol: as §1

[8] = target: T3, human GLP-1 receptor (GLP-1R) (Homo sapiens, UniProt P43220); experiment: cAMP assay, human GLP-1R cells; assay type: cell-based; conditions: Table 9, bis-lipidated peptides
T3 construct: expressed in transfected cells; host or cells: HEK293 cells or CHO cells
T3 sequence (P43220 24-463): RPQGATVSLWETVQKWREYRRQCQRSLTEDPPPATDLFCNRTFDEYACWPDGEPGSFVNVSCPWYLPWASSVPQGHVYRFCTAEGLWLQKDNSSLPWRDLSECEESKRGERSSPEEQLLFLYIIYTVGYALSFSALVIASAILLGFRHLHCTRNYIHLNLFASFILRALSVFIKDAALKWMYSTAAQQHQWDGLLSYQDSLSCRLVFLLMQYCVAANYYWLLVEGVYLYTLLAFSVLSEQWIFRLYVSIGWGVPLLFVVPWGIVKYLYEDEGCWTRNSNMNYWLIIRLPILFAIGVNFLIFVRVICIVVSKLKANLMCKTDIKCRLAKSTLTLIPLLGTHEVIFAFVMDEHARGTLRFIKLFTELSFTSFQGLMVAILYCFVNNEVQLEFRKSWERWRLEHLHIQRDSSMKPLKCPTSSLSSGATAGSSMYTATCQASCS
Summary of the method: (§2)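 Peptide-stimulated cAMP measured by two-step HTRF after a 30 min room-temperature incubation with receptor-expressing cells (hGLP-1R, hGIPR at 1×10^5 cells/ml; hGCGR at 2×10^5 cells/ml). Duplicate dilutions; EC50 from 4-parameter logistic fit of % Delta F.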

[9] = target: T4, human glucagon receptor (GCGR) (Homo sapiens, UniProt P47871); experiment: cAMP assay, human GCGR cells; assay type: cell-based; conditions: Table 9, bis-lipidated peptides
T4 construct: expressed in transfected cells; host or cells: HEK293 cells or CHO cells
T4 sequence (P47871 26-477): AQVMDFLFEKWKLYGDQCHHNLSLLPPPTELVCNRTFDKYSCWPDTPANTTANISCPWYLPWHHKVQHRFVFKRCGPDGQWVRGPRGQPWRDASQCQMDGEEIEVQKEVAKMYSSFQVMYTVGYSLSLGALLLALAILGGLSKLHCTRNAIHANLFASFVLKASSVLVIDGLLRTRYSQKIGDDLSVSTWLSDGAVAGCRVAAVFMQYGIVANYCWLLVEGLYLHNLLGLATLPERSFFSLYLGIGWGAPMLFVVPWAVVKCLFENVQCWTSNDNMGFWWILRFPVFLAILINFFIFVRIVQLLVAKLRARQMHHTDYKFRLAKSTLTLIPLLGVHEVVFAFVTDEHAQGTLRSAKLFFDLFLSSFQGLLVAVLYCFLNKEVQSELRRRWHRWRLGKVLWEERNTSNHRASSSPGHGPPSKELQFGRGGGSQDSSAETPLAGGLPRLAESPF
Summary of the method: as §2

[10] = target: T5, human glucose-dependent insulinotropic peptide receptor (GIPR) (Homo sapiens, UniProt P48546); experiment: cAMP assay, human GIPR cells; assay type: cell-based; conditions: Table 9, bis-lipidated peptides
T5 construct: expressed in transfected cells; host or cells: HEK293 cells or CHO cells
T5 sequence (P48546 22-466): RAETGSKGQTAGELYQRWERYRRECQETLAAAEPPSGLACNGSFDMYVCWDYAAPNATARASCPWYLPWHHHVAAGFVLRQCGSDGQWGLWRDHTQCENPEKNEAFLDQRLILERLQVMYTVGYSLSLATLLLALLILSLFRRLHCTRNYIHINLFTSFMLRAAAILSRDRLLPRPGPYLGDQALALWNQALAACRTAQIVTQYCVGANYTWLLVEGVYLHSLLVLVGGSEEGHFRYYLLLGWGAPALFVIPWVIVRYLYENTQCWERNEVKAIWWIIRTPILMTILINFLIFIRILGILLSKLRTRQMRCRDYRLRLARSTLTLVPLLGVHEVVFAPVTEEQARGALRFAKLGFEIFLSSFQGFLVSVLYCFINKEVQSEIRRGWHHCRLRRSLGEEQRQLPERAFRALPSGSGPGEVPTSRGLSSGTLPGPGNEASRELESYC
Summary of the method: as §2

| Percentage remaining peptide (AUC at specified time-point by RP-HPLC) upon incubation with neprilysin, t = 0 [1] [%] | Percentage remaining intact peptide (AUC by RP-HPLC) upon incubation with pepsin [2] [%] | Percentage remaining intact peptide (AUC by RP-HPLC) upon incubation with trypsin [3] [%] | remaining at 0.5 h [4] [%] | remaining at 1 h [4] [%] | remaining at 2 h [4] [%] | remaining at 4 h [4] [%] | remaining at 8 h [4] [%] | remaining at 24 h [4] [%] | Percentage remaining intact peptide (AUC by RP-HPLC) upon incubation with α-chymotrypsin [5] [%] | remaining at 5 min, […] [6] [%] | remaining at 10 min, […] [6] [%] | remaining at 0.25 h, […] [6] [%] | remaining at 0.5 h, […] [6] [%] | remaining at 1 h, […] [6] [%] | remaining at 2 h, […] [6] [%] | Percentage remaining intact peptide (AUC by RP-HPLC) upon incubation with fasted-state simulated intestinal fluid (FASSIF/P) [7] [%] | SMILES | other results |
| --- | --- | --- | --- | --- | --- | --- | --- | --- | --- | --- | --- | --- | --- | --- | --- | --- | --- | --- |
| 100 | 100 | 100 | 91.6 | 87.2 | 86.3 | 86.6 | 87.7 | 82.1 | 100 |  |  |  |  |  |  |  | CC[C@H](C)[C@H](NC(=O)[C@](C)(Cc1ccccc1)NC(=O)[C@H](CCC(=O)O)NC(=O)[C@](C)(CCCCN)NC(=O)[C@H](C)NC(=O)[C@H](C)NC(=O)[C@H](CCC(=O)O)NC(=O)CNC(=O)[C@H](CCC(=O)O)NC(=O)[C@H](CC(C)C)NC(=O)[C@](C)(Cc1ccccc1)NC(=O)[C@H](CO)NC(=O)[C@](C)(CO)NC(=O)[C@@H](NC(=O)[C@H](CC(=O)O)NC(=O)[C@H](CO)NC(=O)[C@@H](NC(=O)[C@](C)(Cc1ccccc1)NC(=O)[C@H](CO)NC(=O)CNC(=O)[C@H](CCC(=O)O)NC(=O)C(C)(C)NC(=O)[C@@H](N)Cc1c[nH]cn1)[C@@H](C)O)C(C)C)C(=O)N[C@@H](C)C(=O)N[C@@](C)(Cc1ccccc1)C(=O)N[C@H](C(=O)N[C@H](C(=O)N[C@@](C)(CCCCN)C(=O)NCC(=O)NCC(N)=O)C(C)C)C(C)C [compound 17] |  |
|  |  |  |  |  |  |  |  |  |  | 86.2 | 72.9 | 60.3 | 36.3 | 16.2 | 2.1 | 100 | CCCCCCCCCCCC(=O)N[C@@H](CCC(=O)NCCOCCOCC(=O)NCCOCCOCC(=O)NCCCC[C@H](NC(=O)[C@H](C)NC(=O)[C@@H](NC(=O)[C@H](CCCC)NC(=O)[C@H](CCC(=O)O)NC(=O)[C@](C)(CCCCN)NC(=O)[C@H](C)NC(=O)[C@H](C)NC(=O)[C@H](CCC(=O)O)NC(=O)CNC(=O)[C@H](CCC(=O)O)NC(=O)[C@H](CC(C)C)NC(=O)[C@H](CCCCNC(=O)COCCOCCNC(=O)COCCOCCNC(=O)CC[C@H](NC(=O)CCCCCCCCCCC)C(=O)O)NC(=O)[C@H](CO)NC(=O)[C@](C)(CO)NC(=O)[C@@H](NC(=O)[C@H](CC(=O)O)NC(=O)[C@H](CO)NC(=O)[C@@H](NC(=O)[C@](C)(Cc1ccccc1)NC(=O)[C@H](CO)NC(=O)CNC(=O)[C@H](CCC(=O)O)NC(=O)C(C)(C)NC(=O)[C@@H](N)Cc1c[nH]cn1)[C@@H](C)O)C(C)C)[C@@H](C)CC)C(=O)N[C@H](C(=O)N[C@H](C(=O)N[C@@H](CCC(=O)O)C(=O)NCC(=O)NCC(N)=O)C(C)C)C(C)C)C(=O)O [compound 407] (H-H[Aib]EGS[αMeF]TSDV[αMeS]SK([AEEA-AEEA-γGlu-Lauroyl])LEGEAA[αMeK]E[Nle]IAK([AEEA-AEEA-γGlu-Lauroyl])VVEGG-NH2; N-terminus assumed) | EC50 ([8]; mean of n1 and n2, read-out: Primary assay EC50 Mean pM GLP-1R): 2 pM; EC50 ([8]; replicate n2, read-out: Primary assay EC50 GLP-1R n2): 2.01 pM; EC50 ([9]; first replicate, read-out: Primary assay EC50 Gluc-R (n1)): ≥ 21.5 nM; EC50 ([9]; second replicate, read-out: Primary assay EC50 Gluc-R (n2)): ≥ 21.5 nM; EC50 ([10]; first replicate, read-out: Primary assay EC50 GIP-R (n1)): ≥ 21.5 nM; EC50 ([10]; second replicate, read-out: Primary assay EC50 GIP-R (n2)): ≥ 21.5 nM |
|  |  |  |  |  |  |  |  |  |  | 93.9 | 85.7 | 75.9 | 56.1 | 33.2 | 7.7 | 100 | CCCCCCCCCCCC(=O)N[C@@H](CCC(=O)NCCOCCOCC(=O)NCCOCCOCC(=O)NCCCC[C@H](NC(=O)[C@H](C)NC(=O)[C@@H](NC(=O)[C@H](Cc1ccc(OC)cc1)NC(=O)[C@H](CCC(=O)O)NC(=O)[C@](C)(CCCCN)NC(=O)[C@H](C)NC(=O)[C@H](C)NC(=O)[C@H](CCC(=O)O)NC(=O)CNC(=O)[C@H](CCC(=O)O)NC(=O)[C@H](CC(C)C)NC(=O)[C@H](CCCCNC(=O)COCCOCCNC(=O)COCCOCCNC(=O)CC[C@H](NC(=O)CCCCCCCCCCC)C(=O)O)NC(=O)[C@H](CO)NC(=O)[C@](C)(CO)NC(=O)[C@@H](NC(=O)[C@H](CC(=O)O)NC(=O)[C@H](CO)NC(=O)[C@@H](NC(=O)[C@](C)(Cc1ccccc1)NC(=O)[C@H](CO)NC(=O)CNC(=O)[C@H](CCC(=O)O)NC(=O)C(C)(C)NC(=O)[C@@H](N)Cc1c[nH]cn1)[C@@H](C)O)C(C)C)[C@@H](C)CC)C(=O)N[C@H](C(=O)N[C@H](C(=O)N[C@@H](CCC(=O)O)C(=O)NCC(=O)NCC(N)=O)C(C)C)C(C)C)C(=O)O [compound 406] (H-H[Aib]EGS[αMeF]TSDV[αMeS]SK([AEEA-AEEA-γGlu-Lauroyl])LEGEAA[αMeK]EY(Me)IAK([AEEA-AEEA-γGlu-Lauroyl])VVEGG-NH2; N-terminus assumed) |  |
| 100 | 100 | 100.0 | 97.8 | 94.6 | 90.9 | 88.8 | 89.4 | 86.4 | 100 |  |  |  |  |  |  |  | CC[C@H](C)[C@H](NC(=O)[C@H](Cc1ccccc1)NC(=O)[C@H](CCC(=O)O)NC(=O)[C@H](CCCCNC(=O)COCCOCCNC(=O)COCCOCCNC(=O)CC[C@H](NC(=O)CCCCCCCCCCCCCCCCC(=O)O)C(=O)O)NC(=O)[C@H](C)NC(=O)[C@H](C)NC(=O)[C@H](CCC(=O)O)NC(=O)CNC(=O)[C@H](CCC(=O)O)NC(=O)[C@H](CC(C)C)NC(=O)[C@](C)(Cc1ccccc1)NC(=O)[C@H](CO)NC(=O)[C@](C)(CO)NC(=O)[C@@H](NC(=O)[C@H](CC(=O)O)NC(=O)[C@H](CO)NC(=O)[C@@H](NC(=O)[C@](C)(Cc1ccccc1)NC(=O)[C@H](CO)NC(=O)CNC(=O)[C@H](CCC(=O)O)NC(=O)C(C)(C)NC(=O)[C@@H](N)Cc1c[nH]cn1)[C@@H](C)O)C(C)C)C(=O)N[C@@H](C)C(=O)N[C@@](C)(Cc1ccccc1)C(=O)N[C@H](C(=O)N[C@H](C(=O)N[C@@](C)(CCCCN)C(=O)NCC(=O)NCC(N)=O)C(C)C)C(C)C [compound 48] |  |
